ChEMBL document CHEMBL1201862, “PubChem BioAssay data set” (2004)
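The compound was tested at five concentrations on cells cultured in 96-well plates, with a 48-hour exposure period. Abbreviation: GI50, concentration required for 50% inhibition of growth.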 Calls of active or inactive are those of the source. Cut-off read from the data, not from the text of the source: active = GI50 up to about 1.1 µM and inactive = higher.

Assays:
Experiment in all cases: NCI tumour cell line growth inhibition, 48 h
[1] = system: SK-MEL-5
[2] = system: RXF 393
[3] = system: NCI-H522
[4] = system: SNB-75
[5] = system: TK-10
[6] = system: 786-0
[7] = system: UO-31
[8] = system: HOP-92
[9] = system: Hs-578T
[10] = system: UACC-257
[11] = system: NCI-H460
[12] = system: HCT-15
[13] = system: NCI-H23
[14] = system: U-251
[15] = system: SF-295
[16] = system: T47D
[17] = system: KM12
[18] = system: OVCAR-4
[19] = system: M14

Structure (SMILES)	GI50 [1]	GI50 [2]	GI50 [3]	GI50 [4]	GI50 [5]	GI50 [6]	GI50 [7]	GI50 [8]	GI50 [9]	GI50 [10]	GI50 [11]	GI50 [12] [µM]	GI50 [13]	GI50 [14]	GI50 [15]	GI50 [16]	GI50 [17]	GI50 [18]	GI50 [19]
C1COC2SC3=C(SC(=C4SC5=C(SCCS5)S4)S3)SC2O1 (stereo not given)	80.2 µM (inactive)	> 100 µM (inactive)	31.8 µM (inactive)	71.1 µM (inactive)	> 100 µM (inactive)	77.8 µM (inactive)	> 100 µM (inactive)	> 100 µM (inactive)	80.9 µM (inactive)	> 100 µM (inactive)	> 100 µM (inactive)	8.49	> 100 µM (inactive)	> 100 µM (inactive)	36.7 µM (inactive)	60.4 µM (inactive)	17.4 µM (inactive)	31.3 µM (inactive)	94 µM (inactive)
Cc1cc2c(cc1Cl)SC(NS(=O)(=O)c1ccc(Cl)cc1)=NS2(=O)=O	46 µM (inactive)	13.6 µM (inactive)	21.7 µM (inactive)	35.2 µM (inactive)	30.3 µM (inactive)	> 100 µM (inactive)	> 100 µM (inactive)	16 µM (inactive)	41.5 µM (inactive)	46.8 µM (inactive)	79.8 µM (inactive)	> 100	30.5 µM (inactive)	> 100 µM (inactive)	23 µM (inactive)	> 100 µM (inactive)	> 100 µM (inactive)	39.4 µM (inactive)	82.2 µM (inactive)
C=C1c2nc3ccccc3n2C=C(c2ccccc2)N1c1ccc(Cl)cc1	15.3 µM (inactive)	17.5 µM (inactive)	11.5 µM (inactive)	5.12 µM (inactive)	13.4 µM (inactive)	5.83 µM (inactive)	53.1 µM (inactive)	26.8 µM (inactive)	21.3 µM (inactive)	32.2 µM (inactive)	12.6 µM (inactive)	33.3	33.1 µM (inactive)	13.1 µM (inactive)	12.6 µM (inactive)	12.6 µM (inactive)	24 µM (inactive)	5.74 µM (inactive)	17.1 µM (inactive)
CN(N=O)c1ccc(/C=C/c2ccnc3ccccc23)cc1	37.1 µM (inactive)	46.6 µM (inactive)	46.6 µM (inactive)	25.1 µM (inactive)	29.4 µM (inactive)	46.5 µM (inactive)	30.4 µM (inactive)	> 100 µM (inactive)	> 100 µM (inactive)	72.4 µM (inactive)	34.2 µM (inactive)	54.2	> 100 µM (inactive)	54.8 µM (inactive)	41.4 µM (inactive)	50.4 µM (inactive)	93.5 µM (inactive)	> 100 µM (inactive)	93.1 µM (inactive)
CCOC(=O)c1ccc(Nc2c3c(nc4ccccc24)CCCC3)cc1	> 42.5 µM (inactive)	33.9 µM (inactive)	3.62 µM (inactive)	6.73 µM (inactive)	> 74.1 µM (inactive)	29.2 µM (inactive)	> 34.3 µM (inactive)	18.1 µM (inactive)	27.5 µM (inactive)	> 86.1 µM (inactive)	43.2 µM (inactive)	7.13	> 47.9 µM (inactive)	22.9 µM (inactive)	17.1 µM (inactive)	8.51 µM (inactive)	3.54 µM (inactive)	46.7 µM (inactive)	> 34.2 µM (inactive)
COc1ccccc1/C=C/c1cnccn1	> 10 µM (inactive)	> 10 µM (inactive)	> 10 µM (inactive)	> 10 µM (inactive)	> 10 µM (inactive)	> 10 µM (inactive)	> 10 µM (inactive)	> 10 µM (inactive)	> 10 µM (inactive)	> 10 µM (inactive)	> 10 µM (inactive)	> 10	> 10 µM (inactive)	> 10 µM (inactive)	> 10 µM (inactive)	> 10 µM (inactive)	> 10 µM (inactive)	> 10 µM (inactive)	> 10 µM (inactive)
CC(CO)[C@H]1OC(=O)C=C2[C@@]13O[C@@H]3[C@H]1OC(=O)[C@@]3(C)[C@H]4O[C@H]4C[C@@]2(C)[C@@H]13 (stereo not given in full)	0.8 µM (active)	1.62 µM (inactive)	1.46 µM (inactive)	0.738 µM (active)	2.07 µM (inactive)	1.57 µM (inactive)	1.73 µM (inactive)	2.71 µM (inactive)	2.52 µM (inactive)	1.44 µM (inactive)	0.583 µM (active)	0.914	2.43 µM (inactive)	2.15 µM (inactive)	1.36 µM (inactive)	2.92 µM (inactive)	1.19 µM (inactive)	1.15 µM (inactive)	1.19 µM (inactive)
O=[N+]([O-])c1cccc2nc3ccccc3c(NCCCN3CCOCC3)c12	< 0.0114 µM (active)	< 0.013 µM (active)	0.0168 µM (active)	0.0387 µM (active)	0.029 µM (active)	< 0.0106 µM (active)	0.0144 µM (active)	0.0159 µM (active)	0.0405 µM (active)	0.0235 µM (active)	< 0.01 µM (active)	< 0.0104	< 0.0129 µM (active)	0.0276 µM (active)	0.0256 µM (active)	0.0355 µM (active)	0.0154 µM (active)	0.0191 µM (active)	< 0.0124 µM (active)
CC1=C(/C=C/C(C)=C/C=C/C(C)=C/C(=O)Nc2ccc(O)cc2)C(C)(C)CCC1 [FENRETINIDE]	4.15 µM (inactive)	2.04 µM (inactive)	0.929 µM (active)	7.03 µM (inactive)	16.1 µM (inactive)	2.58 µM (inactive)	3.26 µM (inactive)	2.97 µM (inactive)	3.33 µM (inactive)	9.71 µM (inactive)	4.63 µM (inactive)	5.92	2.06 µM (inactive)	4.65 µM (inactive)	2.85 µM (inactive)	2.7 µM (inactive)	3.92 µM (inactive)	3.94 µM (inactive)	4.92 µM (inactive)
CC#CCCN(CC#N)Cc1ccccc1	> 100 µM (inactive)	> 100 µM (inactive)	> 100 µM (inactive)	> 100 µM (inactive)	> 100 µM (inactive)	> 100 µM (inactive)	> 100 µM (inactive)	> 100 µM (inactive)	> 100 µM (inactive)	> 100 µM (inactive)	> 100 µM (inactive)	> 100	> 100 µM (inactive)	> 100 µM (inactive)	> 100 µM (inactive)	> 100 µM (inactive)	> 100 µM (inactive)	> 100 µM (inactive)	> 100 µM (inactive)
Cc1ccc(-c2nnc(-c3ccc4ccccc4c3)o2)cc1	> 96.2 µM (inactive)	5.87 µM (inactive)	69.7 µM (inactive)	6.7 µM (inactive)	7.94 µM (inactive)	11.9 µM (inactive)	15.1 µM (inactive)	> 51.6 µM (inactive)	23 µM (inactive)	22.2 µM (inactive)	83 µM (inactive)	> 96.8	> 100 µM (inactive)	27.7 µM (inactive)	36.2 µM (inactive)	19.2 µM (inactive)	> 100 µM (inactive)	40.3 µM (inactive)	12.3 µM (inactive)
N=C(N)c1ccc(/N=N\c2c(O)c(C(=O)Nc3ccccc3)cc3ccccc23)cc1	22.4 µM (inactive)	> 43.4 µM (inactive)	10.1 µM (inactive)	12.9 µM (inactive)	> 44.5 µM (inactive)	10.8 µM (inactive)	75.5 µM (inactive)	16.4 µM (inactive)	27.3 µM (inactive)	> 68.7 µM (inactive)	24.8 µM (inactive)	18.1	21.9 µM (inactive)	3.76 µM (inactive)	> 60.3 µM (inactive)	17.4 µM (inactive)	16.4 µM (inactive)	17.8 µM (inactive)	> 71.4 µM (inactive)
[O-][n+]1cc(SCc2ccccc2)ncc1SCc1ccccc1	> 10 µM (inactive)	> 10 µM (inactive)	> 10 µM (inactive)	> 10 µM (inactive)	> 10 µM (inactive)	> 10 µM (inactive)	> 10 µM (inactive)	> 10 µM (inactive)	> 10 µM (inactive)	> 10 µM (inactive)	> 10 µM (inactive)	> 10	> 10 µM (inactive)	> 10 µM (inactive)	> 10 µM (inactive)	> 10 µM (inactive)	> 10 µM (inactive)	> 10 µM (inactive)	> 10 µM (inactive)
COC(=O)C12C3C4C1C1C2C3C41C(=O)NC(C)(C)CC(=O)O (stereo not given)	> 100 µM (inactive)	> 100 µM (inactive)	> 100 µM (inactive)	> 100 µM (inactive)	> 100 µM (inactive)	> 100 µM (inactive)	> 100 µM (inactive)	> 100 µM (inactive)	> 100 µM (inactive)	> 100 µM (inactive)	20.7 µM (inactive)	> 100	> 100 µM (inactive)	> 100 µM (inactive)	> 100 µM (inactive)	> 100 µM (inactive)	> 100 µM (inactive)	> 100 µM (inactive)	> 100 µM (inactive)
CC(=O)O[C@H]1C[C@@H](OC(C)=O)[C@@](C)(O)[C@@H]2[C@@H](OC(C)=O)[C@@]3(O)[C@H](/C=C(/CO)[C@H]4O[C@H]4[C@@H](OC(C)=O)[C@@]12C)OC(=O)[C@@H]3C	9.25 µM (inactive)	2.08 µM (inactive)	5.42 µM (inactive)	5.53 µM (inactive)	> 25 µM (inactive)	7.64 µM (inactive)	22.5 µM (inactive)	17.5 µM (inactive)	8.43 µM (inactive)	13.7 µM (inactive)	8.13 µM (inactive)	9.1	16.8 µM (inactive)	6.1 µM (inactive)	6.12 µM (inactive)	22.4 µM (inactive)	13.5 µM (inactive)	> 25 µM (inactive)	10.8 µM (inactive)
